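These data come from cells grown in 96-well plates and exposed to compound for 48 hours at five concentrations. GI50 = concentration required for 50% inhibition of growth.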 Calls of active or inactive are those of the source. Cut-off read from the data, not from the text of the source: active = GI50 up to about 1.1 µM and inactive = higher.
Columns and labels:
Test in all cases: inhibition of tumour cell growth, NCI panel, 48 h
EKVX = test system: EKVX
SK-MEL-2 = test system: SK-MEL-2
NCI/ADR-RES = test system: NCI/ADR-RES
HT-29 = test system: HT-29
MOLT-4 = test system: MOLT-4
MDA-N = test system: MDA-N
LOX IMVI = test system: LOX IMVI
U-251 = test system: U-251
UACC-257 = test system: UACC-257
MDA-MB-231 = test system: MDA-MB-231
SF-539 = test system: SF-539
UACC-62 = test system: UACC-62
HL-60 = test system: HL-60
Hs-578T = test system: Hs-578T
SNB-19 = test system: SNB-19
TK-10 = test system: TK-10
CCRF-CEM = test system: CCRF-CEM
KM12 = test system: KM12
HOP-62 = test system: HOP-62
SR = test system: SR

Row | Structure (SMILES) | GI50 (EKVX) | GI50 (SK-MEL-2) | GI50 (NCI/ADR-RES) | GI50 (HT-29) | GI50 (MOLT-4) | GI50 (MDA-N) | GI50 (LOX IMVI) | GI50 (U-251) | GI50 (UACC-257) | GI50 (MDA-MB-231) | GI50 (SF-539) | GI50 (UACC-62) | GI50 (HL-60) | GI50 (Hs-578T) | GI50 (SNB-19) | GI50 (TK-10) | GI50 (CCRF-CEM) | GI50 (KM12) | GI50 (HOP-62) | GI50 (SR)
1 | N#CC12COC3(CCCCC3C1(C#N)C#N)OC2=N (stereo not given) | 18.5 µM (inactive) | 12.7 µM (inactive) | 28.2 µM (inactive) | 11.3 µM (inactive) | 10.9 µM (inactive) | 12.9 µM (inactive) | 12.9 µM (inactive) | 8.87 µM (inactive) | 17.4 µM (inactive) | 15.2 µM (inactive) | 13.9 µM (inactive) | 14.7 µM (inactive) | 2.91 µM (inactive) | 17.1 µM (inactive) | 17.8 µM (inactive) | 16.2 µM (inactive) | 3.53 µM (inactive) | > 10 µM (inactive) | – | –
2 | Nc1nc(N)c2nn(-c3ccc(C(=O)O)cc3)nc2n1 | > 100 µM (inactive) | > 100 µM (inactive) | > 100 µM (inactive) | > 100 µM (inactive) | > 100 µM (inactive) | > 100 µM (inactive) | > 100 µM (inactive) | > 100 µM (inactive) | > 100 µM (inactive) | > 100 µM (inactive) | > 100 µM (inactive) | > 100 µM (inactive) | 72.1 µM (inactive) | > 100 µM (inactive) | > 100 µM (inactive) | > 100 µM (inactive) | > 100 µM (inactive) | > 100 µM (inactive) | > 100 µM (inactive) | –
3 | Cc1ccc(S(=O)(=O)NC(=O)OC23COCN2COC3)cc1 | > 100 µM (inactive) | > 100 µM (inactive) | > 100 µM (inactive) | > 100 µM (inactive) | – | > 100 µM (inactive) | > 100 µM (inactive) | > 100 µM (inactive) | > 100 µM (inactive) | > 100 µM (inactive) | > 100 µM (inactive) | > 100 µM (inactive) | – | > 100 µM (inactive) | > 100 µM (inactive) | > 100 µM (inactive) | – | > 100 µM (inactive) | > 100 µM (inactive) | 31.6 µM (inactive)
4 | CC(C)(C)OC(=O)N1CC(O)O[C@H](c2ccccc2)[C@@H]1c1ccccc1 (stereo not given in full) | 19.5 µM (inactive) | 14.5 µM (inactive) | 26.4 µM (inactive) | 20.6 µM (inactive) | 30.4 µM (inactive) | 28.2 µM (inactive) | 35.7 µM (inactive) | 14.4 µM (inactive) | 17.7 µM (inactive) | 28.2 µM (inactive) | – | 14.3 µM (inactive) | – | 32.4 µM (inactive) | 15.7 µM (inactive) | 17.8 µM (inactive) | 21.6 µM (inactive) | 19.2 µM (inactive) | 16.3 µM (inactive) | 16.7 µM (inactive)
5 | C=C(C)CC1=C(OCC)C(OC)(OCC)C1=O (stereo not given) | > 100 µM (inactive) | > 100 µM (inactive) | > 100 µM (inactive) | > 100 µM (inactive) | > 100 µM (inactive) | > 100 µM (inactive) | > 100 µM (inactive) | > 100 µM (inactive) | > 100 µM (inactive) | > 100 µM (inactive) | > 100 µM (inactive) | > 100 µM (inactive) | > 100 µM (inactive) | > 100 µM (inactive) | > 100 µM (inactive) | > 100 µM (inactive) | > 100 µM (inactive) | > 100 µM (inactive) | > 100 µM (inactive) | –
6 | O=[N+]([O-])c1cccc2nc3ccccc3c(NCCCCNc3c4ccccc4nc4cccc([N+](=O)[O-])c34)c12 | 0.104 µM (active) | 0.141 µM (active) | 0.248 µM (active) | < 0.01 µM (active) | < 0.0104 µM (active) | 0.0536 µM (active) | 0.0621 µM (active) | 0.0261 µM (active) | 0.146 µM (active) | 0.0178 µM (active) | 0.0244 µM (active) | 0.134 µM (active) | < 0.01 µM (active) | 0.191 µM (active) | 0.0302 µM (active) | 0.0213 µM (active) | < 0.016 µM (active) | 0.0401 µM (active) | 0.042 µM (active) | –
7 | c1cc2c3c(c1)[C@@H]1O[C@@H]1c1cccc(c1-3)[C@@H]1O[C@H]21 | 16.6 µM (inactive) | 17.4 µM (inactive) | 22.4 µM (inactive) | 17.7 µM (inactive) | 35 µM (inactive) | 17.9 µM (inactive) | 3.08 µM (inactive) | 16.9 µM (inactive) | 18.2 µM (inactive) | 19.1 µM (inactive) | – | 16.5 µM (inactive) | – | 17.6 µM (inactive) | 53.3 µM (inactive) | 32.2 µM (inactive) | – | 17.1 µM (inactive) | 27.7 µM (inactive) | 49.5 µM (inactive)
8 | S=C(NCCc1ccccn1)c1nc[nH]c1C(=S)NCCc1ccccn1 | 83.8 µM (inactive) | 47.8 µM (inactive) | 20.5 µM (inactive) | > 100 µM (inactive) | – | 41.7 µM (inactive) | 20.7 µM (inactive) | 45.5 µM (inactive) | > 100 µM (inactive) | > 100 µM (inactive) | – | 22.7 µM (inactive) | – | 20.7 µM (inactive) | 60.3 µM (inactive) | 62.1 µM (inactive) | 26.1 µM (inactive) | 24 µM (inactive) | 37.1 µM (inactive) | 34 µM (inactive)
9 | C=C(C)CC1=C(C(=S)NCCO[Si](C)(C)C(C)(C)C)C(OCC)(OCC)C1=O | 16.6 µM (inactive) | 17 µM (inactive) | 36.1 µM (inactive) | 9.59 µM (inactive) | > 100 µM (inactive) | 19.3 µM (inactive) | 15.8 µM (inactive) | 19.9 µM (inactive) | 16.9 µM (inactive) | 26.4 µM (inactive) | 19.9 µM (inactive) | 17.7 µM (inactive) | > 100 µM (inactive) | 24.8 µM (inactive) | 17.7 µM (inactive) | 16.1 µM (inactive) | > 100 µM (inactive) | 16.7 µM (inactive) | 17.9 µM (inactive) | –
10 | CCCCCCCCCCCCOP(=O)(O)OP(=O)(O)OCC1OC(n2cc(C)c(=O)[nH]c2=O)CC1O (stereo not given) | > 100 µM (inactive) | > 100 µM (inactive) | > 100 µM (inactive) | > 100 µM (inactive) | > 100 µM (inactive) | > 100 µM (inactive) | > 100 µM (inactive) | > 100 µM (inactive) | > 100 µM (inactive) | > 100 µM (inactive) | > 100 µM (inactive) | – | > 100 µM (inactive) | > 100 µM (inactive) | > 100 µM (inactive) | > 100 µM (inactive) | > 100 µM (inactive) | > 100 µM (inactive) | > 100 µM (inactive) | –
11 | CC1(C)SC2C(NC(=O)C(C(=O)O)c3ccccc3)C(=O)N2C1C(=O)O (stereo not given) | > 100 µM (inactive) | > 100 µM (inactive) | > 100 µM (inactive) | > 100 µM (inactive) | > 100 µM (inactive) | > 100 µM (inactive) | > 100 µM (inactive) | > 100 µM (inactive) | > 100 µM (inactive) | > 100 µM (inactive) | > 100 µM (inactive) | > 100 µM (inactive) | > 100 µM (inactive) | > 100 µM (inactive) | > 100 µM (inactive) | > 100 µM (inactive) | > 100 µM (inactive) | > 100 µM (inactive) | > 100 µM (inactive) | –
